# Data: US20110092456A1, “Methods of increasing cAMP levels and uses thereof” (priority 2009, published 2011)
# How the values were obtained:
# [1] = system: middle cerebral artery occlusion; conditions: rat; 2 h occlusion, 24 h reperfusion; oral cilostazol 30 mg/kg, aspirin 300 mg/kg, clopidogrel 30 mg/kg; cited from earlier work
# [2] = system: coronary artery ligation for 30 minutes followed by 4-hour reperfusion; test: Mouse coronary artery ligation/reperfusion infarct size; format: in vivo; conditions: for IS, expressed as a percent of the left ventricle or a percent of the area at risk: words
# Description: (§1) Protocol 1: Mice received 3-day pretreatment with: 1) SIT (300 mg/kg per day); 2) PIO (5 mg/kg per day); 3) SIT+PIO; or water alone (control). Drugs were suspended in water and administered by oral gavage once daily. On the 4th day, mice received intravenous H-89 (20 mg/kg) or vehicle (5% DMSO) (40). One hour after injection, mice underwent coronary artery ligation for 30 minutes followed by 4-hour reperfusion, or mice were euthanized under anesthesia and hearts were explanted without being subjected to ischemia. For immunoblotting and enzyme activity, hearts were rinsed in cold PBS (pH 7.4), containing 0.16 mg/ml heparin to remove red blood cells and clots, frozen in liquid nitrogen and stored at −80° C. for further analyses.
# Protocol 2: Mice received 14-day pretreatment with: 1) SIT (300 mg/kg per day); 2) PIO (5 mg/kg per day); 3) SIT+PIO; or water alone (control), as above. Mice underwent coronary artery ligation for 30 minutes followed by 4-hour reperfusion. […] The chest was opened and the left coronary artery was encircled with a suture and ligated for 30 minutes. Ischemia was verified by regional dysfunction and discoloration of the ischemic zone.
# Hearts were excised and the left ventricle was sliced transversely into 6 sections. Slices were incubated for 10 minutes at 37 C in 1% buffered (pH=7.4) 2,3,5-triphenyl tetrazolium-chloride (TTC), fixed in a 10% formaldehyde and photographed in order to identify the AR (uncolored by the blue dye), the IS (unstained by TTC), and the non ischemic zones (colored by blue dye). The area of AR and IS in each slice were determined by planimetry, converted into percentages of the whole for each slice, and multiplied by the weight of the slice. The results were summed to obtain the weight of the myocardial AR and IS (38, 39).
# cAMP = test: Myocardial cAMP levels, mouse; format: in vivo; conditions: for myocardial cAMP levels: mice, 3-day pretreatment, hearts not subjected to ischemia, words
# Description: as §1
# Myocardial samples from the anterior wall of the left ventricle of hearts that were not subjected to ischemia were homogenize in 1 ml cold extraction buffer [20 mM Tris-HCl (pH7.4), 0.5 mM EDTA, 0.5 mM EGTA, 10 mM β-mercaptoethanol, 1 mM phenylmethylsulfonyl fluoride, 0.1 mM dithiothreitol (DTT), 1 μg/ml leupeptin, 1 μg/ml aprotinin, 0.1% TritonX-100], centrifuged at 14,000×g for 15 min at 4° C., and the supernatants were collected. cAMP levels and PKA activity were measured using assay kits according to the manufacturer's instructions.
# Protein Kinase A (PKA) = test: Myocardial PKA activity, mouse; format: in vivo
# Description: Protocol 1: Mice received 3-day pretreatment with: 1) SIT (300 mg/kg per day); 2) PIO (5 mg/kg per day); 3) SIT+PIO; or water alone (control). Drugs were suspended in water and administered by oral gavage once daily. […] One hour after injection, mice underwent coronary artery ligation for 30 minutes followed by 4-hour reperfusion, or mice were euthanized under anesthesia and hearts were explanted without being subjected to ischemia.
# cPLA2 = test: Myocardial cPLA2 activity, mouse; format: in vivo; conditions: for cPLA2 activity: mice, 3-day pretreatment, words
# Description: as §1
# (§2) Myocardial samples of the anterior wall of the left ventricle were homogenized in cold PBS (pH 7.4), and centrifuged. The supernatants were collected and stored on ice. Measurement of 6-Keto-PGF1α, the stable metabolite of prostacyclin, 15dPGJ2, 15-epilipoxinA4, and PLA2 activity were made using immunoassay assay kits. The COX activity assay kit measures the peroxidase activity of COX, assayed colorimetrically by monitoring the appearance of oxidized N,N,N″,N″-tetramethyl-p-phenylenediamaine (TMPD) at 590 nm. Each myocardial sample was tested in triplicate (the first without an inhibitor; the second with DuP-697, a specific COX2 inhibitor; and the third with Sc560, a specific COX1 inhibitor. COX1 activity was calculated as the difference between total COX activity in the sample without an inhibitor and the sample with Sc560, and COX2 activity as the difference between total COX activity in the sample without an inhibitor and the sample with DuP-697.
# COX2 = test: Myocardial COX2 activity, mouse; format: in vivo; conditions: for COX2 activity: mice, 3-day pretreatment, words
# Description: as §1, §2
# 6-keto-PGF1α = test: Myocardial 6-keto-PGF1α levels, mouse; format: in vivo
# Description: as §1
# (§3) Myocardial samples of the anterior wall of the left ventricle were homogenized in cold PBS (pH 7.4), and centrifuged. The supernatants were collected and stored on ice. […] Each myocardial sample was tested in triplicate (the first without an inhibitor; the second with DuP-697, a specific COX2 inhibitor; and the third with Sc560, a specific COX1 inhibitor. COX1 activity was calculated as the difference between total COX activity in the sample without an inhibitor and the sample with Sc560, and COX2 activity as the difference between total COX activity in the sample without an inhibitor and the sample with DuP-697.
# 15dPGJ2 = test: Myocardial 15dPGJ2 levels, mouse; format: in vivo
# Description: as §1, §3
# 15-epi-lipoxinA4 = test: Myocardial 15-epi-lipoxinA4 levels, mouse; format: in vivo
# Description: as §1, §2
# eNOS = test: Immunoblotting of myocardial eNOS, mouse; format: in vivo
# Description: as §1
# (§4) Myocardial samples from the risk zone of the anterior wall of the left ventricular wall exposed to ischemia-reperfusion (IR), or from the anterior wall of control hearts not exposed to ischemia were homogenized in lysis buffer (in mMol): 25 Tris.HCl (pH 7.4), 0.5 EDTA, 0.5 EGTA, 1 phenylmethylsulfonyl 193 fluoride, 1 dithiothreitol, 25 NaF, 1 Na3VO4, 1% Triton X-100, 2% SDS and 1% 194 protease inhibitor cocktail. The lysate was centrifuged at 10,000 g for 15 min at 4° C. The resulting supernatants were collected. Protein (50 μg) was fractionated by SDS-PAGE (4%-20% polyacrylamide gels) and transferred to PVDF membranes (Millipore, Bedford, Mass.). The membranes were incubated overnight at […] with primary antibodies. Bound antibodies were detected using the chemiluminescent substrate (NEN Life Science Products, Boston, Mass.). The protein signals were quantified 200 with an image-scanning densitometer, and the strength of each 201 protein signal was normalized to the corresponding β-actin signal. Data are expressed as percent of the expression in the 202 control group.
# CREB = test: Immunoblotting of myocardial CREB, mouse; format: in vivo; conditions: IR
# Description: as §1, §4
# [3] = cited from earlier work
# [4] = Protocol 1: mice, 3-day pretreatment (SIT 300 mg/kg per day, PIO 5 mg/kg per day), H-89 20 mg/kg i.v. alone
# [5] = mice, 3-day pretreatment, words
# [6] = mice, 3-day pretreatment, IR-induced increase, immunoblot, words
# [7] = H-89 20 mg/kg i.v. after 3-day SIT
# [8] = H-89 20 mg/kg i.v. after 3-day PIO
# [9] = H-89 20 mg/kg i.v. after 3-day PIO, IR
# [10] = H-89 20 mg/kg i.v. after 3-day SIT, IR
# [11] = 50 patients, primary stenting for ST elevation acute myocardial infarction, cilostazol 100 mg BID versus aspirin alone
compound,measurement,setting,value
COC(=O)[C@H](c1ccccc1Cl)N1CCc2sccc2C1 [clopidogrel],brain infarct size,[1],but not aspirin (300 mg/kg) or clopidogrel (30 mg/kg) reduced brain infarct size
"N[C@@H](CC(=O)N1CCn2c(nnc2C(F)(F)F)C1)Cc1cc(F)c(F)cc1F [SIT, sitagliptin phosphate]","IS, expressed as a percent of the left ventricle or a percent of the area at risk",[2]; [4],significantly smaller
same,"IS, expressed as a percent of the left ventricle or a percent of the area at risk","[2]; Protocol 2: mice, 14-day pretreatment (SIT 300 mg/kg per day, PIO 5 mg/kg per day)",significantly smaller
same,myocardial cAMP levels,cAMP,significant increase
same,myocardial PKA activity,"Protein Kinase A (PKA); mice, 3-day pretreatment, hearts not subjected to ischemia, words",augmented PKA activity
same,cPLA2 activity,cPLA2,"but not SIT, augmented cPLA2 activity"
same,COX2 activity,COX2,no effect on COX2 activity
same,6-keto-PGF1α levels,6-keto-PGF1α; [5],no effect
same,15dPGJ2 levels,15dPGJ2; [5],no effect
same,15-epi-lipoxinA4 levels,15-epi-lipoxinA4; [5],significantly increased
same,Ser-633 P-eNOS levels,eNOS; [6],augmented this increase
same,Ser-1177 P-eNOS levels,eNOS; [6],augmented this increase
same,total eNOS levels,"eNOS; mice, 3-day pretreatment, ischemia-reperfusion (IR), immunoblot, words",no effect on total eNOS levels
same,total CREB levels,"CREB; mice, 3-day pretreatment, immunoblot, words",did not affect total CREB levels
same,levels of P-CREB,"CREB; mice, 3-day pretreatment, versus control no IR or control IR, words",significantly higher
O=S(=O)(NCCNC/C=C/c1ccc(Br)cc1)c1cccc2cnccc12 [H-89],"IS, expressed as a percent of the left ventricle or a percent of the area at risk",[2]; [4],no effect on IS
same,IS: effect of H-89 on the effect of PIO,"[2]; Protocol 1, H-89 20 mg/kg i.v. one hour before ligation after 3-day PIO",only partially blocked the effect of PIO
same,IS: effect of H-89 on the effect of SIT,"[2]; Protocol 1, H-89 20 mg/kg i.v. one hour before ligation after 3-day SIT",completely blocked the effect of SIT
same,myocardial cAMP levels: H-89 on the SIT effect,cAMP; [7],did not block the SIT effect
same,myocardial cAMP levels,cAMP,no effect on cAMP levels
same,PKA activity: H-89 on the PIO induced increase,Protein Kinase A (PKA); [8],completely blocked
same,PKA activity: H-89 on the SIT induced increase,Protein Kinase A (PKA); [7],completely blocked
same,cPLA2 activity: H-89 on the effect of PIO,cPLA2; [8],did not block the effect of PIO
same,cPLA2 activity: H-89 in combination with SIT,cPLA2; [7],no effect on cPLA2 activity
same,cPLA2 activity,cPLA2,no effect on cPLA2 activity
same,COX2 activity: H-89 on the PIO induced increase,COX2; [8],did not block the PIO induced increase
same,COX2 activity: H-89 in combination with SIT,COX2; [7],no effect on COX2 activity
same,COX2 activity,COX2,no effect on COX2 activity
same,6-keto-PGF1α levels: H-89 on the effect of PIO,6-keto-PGF1α; [8],did not block the effect of PIO
same,15dPGJ2 levels: H-89 on the effect of PIO,15dPGJ2; [8],did not block the effect of PIO
same,15-epi-lipoxinA4 levels: H-89 on the effect of PIO,15-epi-lipoxinA4; [8],completely blocked the effect of both PIO and SIT
same,15-epi-lipoxinA4 levels: H-89 on the effect of SIT,15-epi-lipoxinA4; [7],completely blocked the effect of both PIO and SIT
same,Ser-633 P-eNOS levels: H-89 on the effect of PIO,eNOS; [9],attenuated this increase
same,Ser-1177 P-eNOS levels: H-89 on the effect of PIO,eNOS; [9],attenuated the effects of both SIT and PIO
same,Ser-633 P-eNOS levels: H-89 on the effect of SIT,eNOS; [10],attenuated this increase
same,Ser-1177 P-eNOS levels: H-89 on the effect of SIT,eNOS; [10],attenuated the effects of both SIT and PIO
same,levels of P-CREB: H-89 on the effect of PIO,CREB; [8],blocked this effect of SIT and PIO
same,levels of P-CREB: H-89 on the effect of SIT,CREB; [7],blocked this effect of SIT and PIO
CC(=O)Oc1ccccc1C(=O)O [aspirin],brain infarct size,[1],but not aspirin (300 mg/kg) or clopidogrel (30 mg/kg) reduced brain infarct size
same,6-month restenosis rate,[3]; [11],20%
same,target lesion revascularization,[3]; [11],16%
same,in-stent stenosis,"[3]; 70 patients, Palmaz-Schatz stenting, cilostazol 200 mg/d, aspirin 81 mg/d",26.8%
